These results are taken from ChEMBL document CHEMBL3301451, “MMV Malaria Box gametocyte functional viability assay screening”.

Broadly, the inhibition is the relative decrease from the control value, in per cent.

Format in all cases: functional
Common to all, as to parameters: concentration or dose not given beside the values

For experiment [1], the system named is Plasmodium falciparum. Put plainly: MMV: P. falciparum NF54 functionally mature Stage V gametocytes were incubated for 24 hr in the presence of the test compounds. Gamete formation was then triggered by addition of 2uM xantheurenic acid and temperature decrease to ~20C. Female gamete formation was recorded 24 hr later by automated microscopy detection of surface labelling of female gametes with a Cy3-conjugated antibody reactive to Pfs25. All compounds were tested in 4 independent experiments and data presented here is the mean. The settings on record: NF54, 24 h.

In experiment [2] the test system is Plasmodium falciparum. The experiment in a line: MMV: P. falciparum NF54 functionally mature Stage V gametocytes were incubated for 24 hr in the presence of the test compounds. Gamete formation was then triggered by addition of 2uM xantheurenic acid and temperature decrease to ~20C. Male gamete exflagellation was recorded and analysed by automated microscopy after 20 min. All compounds were tested in 4 independent experiments and data presented here is the mean.

The test system of experiment [3] is Plasmodium berghei. Put plainly: MMV: P. berghei-infected blood was withdrawn from mice by cardiac pucture before being immediately added to ookinete culture medium containing test compounds. 26 hr later, GFP-positive ookinetes were identified and counted by automated microscopy. All compounds were tested in 4 independent experiments and data presented here is the mean.

`CCN(CC)c1ccc(NC(=O)c2cccs2)cc1`: the inhibition was -5.42% in experiment [1], 44.7% in experiment [2] and 23.39% in experiment [3].

For the compound `Cc1c(C)n(CC(O)CNC2CCCCC2C)c2ccccc12` (stereo unspecified), the inhibition in experiment [1] is -4.05%; in experiment [2], 8.26%; in experiment [3] it was -21.36%.

As to `COc1ccc(CNC2CCN(c3ccc(NC(=O)c4cccc(Cl)c4)cc3)CC2)cc1OC`, the inhibition is -36.5% in experiment [1], 15% in experiment [2] and -11.96% in experiment [3].

Turning to `Cc1ccnc(NC(c2cccc(OCc3ccccc3)c2)c2ccc3cccnc3c2O)c1` (stereo unspecified), the inhibition in experiment [1] was -12.7%; in experiment [2], 11%; in experiment [3], -0.9408%.

`Cl.N=c1n(CCN2CCCCC2)c2ccccc2n1CC(O)c1cccc(Br)c1` (stereo unspecified): the inhibition in experiment [1] is -26.6%; in experiment [2], -19.3%; in experiment [3], -14.54%.

As to `Cc1ccc(N2C(=O)C3C(C2=O)C2(c4ccccc4)C(=O)C3(c3ccccc3)C(c3ccccc3)=C2c2ccccc2)cc1` (stereo unspecified), the inhibition in experiment [1] was -19.9%; in experiment [2] it was 21.2%; in experiment [3] it was -15.1%.

With `CC1=C(CC(=O)c2cccc([N+](=O)[O-])c2)C(=O)c2ccccc2C1=O`, the figures for the inhibition in experiment [1], in experiment [2] and in experiment [3] were -17.4%, -2.58% and -6.724%, respectively.

Turning to `O=C(CSc1ccc2nnc(-c3cccc(F)c3)n2n1)Nc1ccc2c(c1)OCO2`, the inhibition in experiment [1] was -24.8%; in experiment [2] it was -1.24%; in experiment [3] it was -8.438%.

In the case of `CCOc1ccc(Nc2ccnc3cc(Cl)ccc23)cc1`, the inhibition in experiment [1] is -52.9%; in experiment [2], -4.26%; in experiment [3], -13.78%.

In the case of `CCc1ccc(CNCC(O)c2ccccc2)cc1.Cl` (stereo unspecified), the results for the inhibition in experiment [1], in experiment [2] and in experiment [3] were -20.9%, -40.9% and -12.46%, respectively.

Take `COc1ccc2c(=O)cc(C(Cl)(Cl)Cl)oc2c1`: the inhibition in experiment [1] is -23.2%; in experiment [2], 31.7%; in experiment [3], -22.17%.

With `CCCCC(O)(c1ccc(Cl)cc1)C(CN1CCOCC1)c1ccc(Cl)cc1.Cl` (stereo unspecified), the inhibition in experiment [1] is -22.4%; in experiment [2] it was -10.1%; in experiment [3] it was -12.32%.

As for `O=C(Nc1cccc(C(F)(F)F)c1)c1cc(Cl)ccc1O`, the values for the inhibition in experiment [1], in experiment [2] and in experiment [3] were -6.94%, 24.9% and -2.67%, respectively.

Regarding `CCOC(=O)C1CCN(C(=O)CN2C(=O)c3ccccc3C2c2c[nH]c3ccccc23)CC1` (stereo unspecified), the inhibition is -26% in experiment [1], 32.6% in experiment [2] and -16.49% in experiment [3].

Turning to `COc1ccc2sc(N(Cc3cccnc3)C(=O)c3ccc(C#N)cc3)nc2c1`, the figures for the inhibition in experiment [1], in experiment [2] and in experiment [3] were -25.4%, 18.5% and -20.76%, respectively.

Take `O=C(CCc1ccco1)NC1CCN(CC2(c3ccc(Cl)cc3)CCC2)CC1`: the inhibition was -33.1% in experiment [1], 39.4% in experiment [2] and 1.599% in experiment [3].

`CC(C)(C)c1ccc2c(c1)CN(Cc1ccc(Cl)cc1)CO2`: the inhibition is 6.43% in experiment [1], -12.2% in experiment [2] and 3.358% in experiment [3].

For the compound `CC(C)OCc1cc(CN2CCN(c3cccc(Cl)c3)CC2)c(O)c2ncccc12`, the figures for the inhibition in experiment [1], in experiment [2] and in experiment [3] were -27.4%, 10.1% and 5.6%, respectively.

As to `Cc1ccc(Nc2nc(NCCO)c3ccccc3n2)cc1C`, the inhibition is -25.6% in experiment [1], 12.7% in experiment [2] and -19.56% in experiment [3].

Regarding `COc1ccccc1CNC(=O)C1c2ccccc2C(=O)N(CC(C)C)C1c1cccs1` (stereo unspecified), the inhibition was -15.9% in experiment [1], 8.38% in experiment [2] and -12.03% in experiment [3].

Take `CCN(CC)CCn1c(=N)n(CC(O)c2ccc(Cl)c(Cl)c2)c2ccccc21.Cl` (stereo unspecified): the values for the inhibition in experiment [1], in experiment [2] and in experiment [3] were 7.92%, -66.5% and -13%, respectively.

Take `CCCCc1c(C)nc2c(OC)cccc2c1O`: the inhibition in experiment [1] is 0.0743%; in experiment [2], 54.7%; in experiment [3], 20.97%.

Take `CCn1nc(-c2ccc(C(=O)OC)cc2)nc2c(=O)n(C)c(=O)nc1-2`: the inhibition in experiment [1] was -15.8%; in experiment [2] it was 25.3%; in experiment [3], 17.71%.

For `Oc1ccc(C(=C(Cl)Cl)c2ccc(O)cc2)cc1`, the inhibition in experiment [1] was -25.3%; in experiment [2], 5.51%; in experiment [3], 3.378%.

For the compound `Cl.OC(CNCc1ccccc1)Cn1c2ccccc2c2ccccc21` (stereo unspecified), the figures for the inhibition in experiment [1], in experiment [2] and in experiment [3] were 11.4%, -10.2% and 3.967%, respectively.

Consider `CC(NCc1ccccc1)c1cc(Cl)ccc1O` (stereo unspecified), for which the inhibition is -17.3% in experiment [1], -5.35% in experiment [2] and -6.231% in experiment [3].

Consider `CCCCCCC(O)(c1ccc(F)cc1)C(CN1CCOCC1)c1ccccc1.Cl` (stereo unspecified), for which the inhibition is 17.7% in experiment [1], -64% in experiment [2] and -9.863% in experiment [3].

For the compound `COc1cc2c3cc1Oc1c(OC)c(OC)cc4c1C(Cc1ccc(O)c(c1)Oc1ccc(cc1)CC3N(C)CC2)N(C)CC4.Cl` (stereo unspecified), the inhibition in experiment [1] was -37.2%; in experiment [2], -64.1%; in experiment [3], -16.79%.

Take `Cc1c(C)n(Cc2ccc(F)cc2)c2ccc(C(=O)NCc3ccco3)cc12`: the inhibition was -40.2% in experiment [1], 49.7% in experiment [2] and 17.74% in experiment [3].

Take `CCOc1ccc(/C=C/c2nc(=O)c3ccccc3o2)cc1`: the inhibition in experiment [1] is -30.2%; in experiment [2], 23.7%; in experiment [3] it was -4.823%.

Take `CCOc1cc(CNC(C)C(O)c2ccccc2)cc(Cl)c1OCC` (stereo unspecified): the figures for the inhibition in experiment [1], in experiment [2] and in experiment [3] were -44.5%, 11.6% and -7.956%, respectively.

On to `Cc1ccc2nc(C)cc(Nc3cccc(C(F)(F)F)c3)c2c1.Cl`, for which the values for the inhibition in experiment [1], in experiment [2] and in experiment [3] were -16.2%, -27.5% and -4.574%, respectively.

Consider `CC1CCN(Cc2c(O)ccc3cc(-c4nc5ccccc5s4)c(=O)oc23)CC1`, for which the inhibition in experiment [1] is -24.7%; in experiment [2] it was -4.49%; in experiment [3] it was 100%.

As for `COc1cc(C(=O)ON=C(N)Cc2cccc3ccccc23)cc(OC)c1OC`, the inhibition in experiment [1] was -26.8%; in experiment [2], -12.8%; in experiment [3], -15.26%.

With `COc1ccc(NC(=O)C2c3ccccc3C(=O)N(CC(C)C)C2c2cccs2)cc1` (stereo unspecified), the inhibition in experiment [1] was 13.9%; in experiment [2] it was 22.3%; in experiment [3], -10.74%.

With `COc1ccc(NC(=O)C2c3ccccc3C(=O)N(CC(C)C)C2c2cccs2)cc1Cl` (stereo unspecified), the inhibition is -2.16% in experiment [1], 8.99% in experiment [2] and -15.31% in experiment [3].

With `CCCCCn1c(=N)n(CC(O)COc2cccc(C)c2)c2ccccc21.Cl` (stereo unspecified), the inhibition in experiment [1] is -30.6%; in experiment [2], -6.7%; in experiment [3], 6.769%.

`O=C(NC1CCN(Cc2ccccc2)CC1)c1cc(-c2cccnc2)nc2ccc(Cl)cc12`: the inhibition in experiment [1] is -32.7%; in experiment [2], -6.01%; in experiment [3], -13.2%.

As to `O=C(Nc1ccccc1O)c1ccc(Oc2cccc(C(=O)Nc3ccccc3O)c2)cc1`, the results for the inhibition in experiment [1], in experiment [2] and in experiment [3] were -9.72%, 15.9% and -7.561%, respectively.

On to `COc1cccc(Cn2c(Oc3ccccc3)nc3c2c(=O)n(C)c(=O)n3C)c1`, for which the results for the inhibition in experiment [1], in experiment [2] and in experiment [3] were 1.84%, 35.5% and -11.71%, respectively.

Take `COc1ccc(Br)cc1C1Nc2ccc3ccccc3c2C2=C1C(=O)CC(c1ccccc1)C2` (stereo unspecified): the inhibition was -13.2% in experiment [1], 9.97% in experiment [2] and -18.54% in experiment [3].

Turning to `CC(C)(C)CC(C)(C)NCC(O)COc1ccc2c(c1)CCC2.Cl` (stereo unspecified), the inhibition in experiment [1] was -4.34%; in experiment [2] it was -54.4%; in experiment [3], -7.207%.

Consider `O=C1c2ccc3c4c(ccc(c24)C(=O)N1CCCCO)C(=O)N(CCCCO)C3=O`, for which the inhibition in experiment [1] is -45.3%; in experiment [2] it was -2.41%; in experiment [3], -0.9886%.

In the case of `Cc1sc(NC(=O)c2ccccc2)c(C(c2cccs2)N2CCN(c3ccccc3)CC2)c1C` (stereo unspecified), the results for the inhibition in experiment [1], in experiment [2] and in experiment [3] were -14.4%, 8.21% and -17.69%, respectively.

With `O=C(Nc1ccccc1O)c1ccc(-c2ccc(Cl)cc2Cl)o1`, the inhibition in experiment [1] is -20.6%; in experiment [2], 18.9%; in experiment [3], -6.243%.

For the compound `COc1ccc(-n2ccnc2SCC(=O)Nc2cc(C)ccc2C)c(OC)c1`, the inhibition is -9.31% in experiment [1], 12% in experiment [2] and -11.96% in experiment [3].

On to `COc1cccc(O)c1CN1CCC2(CCCN(Cc3ccc(F)cc3)C2)C1` (stereo unspecified), for which the inhibition in experiment [1] is -15.6%; in experiment [2] it was -5.07%; in experiment [3], 0.1358%.

Take `CCOc1cccc2sc(N(Cc3cccnc3)C(=O)C3CCCCC3)nc12`: the inhibition was -5.49% in experiment [1], -1.33% in experiment [2] and -7.751% in experiment [3].

As for `O=C1CC(O)(C(F)(F)C(F)(F)F)Oc2ccccc21` (stereo unspecified), the inhibition in experiment [1] is -15.2%; in experiment [3], -0.9117%.
